This note sets out measurements from US10071086B2, “1H-pyrazolo[3,4-b]pyridines and therapeutic uses thereof” (Samumed, LLC, priority 2012, dated 2018).

The test system of this experiment is Wnt pathway. In words: Wnt activity reporter assay (SP5 promoter-luciferase in SW480 cells). It counts as cell-based. The conditions noted are these: Homo sapiens, SP5 promoter firefly luciferase reporter, read-out: Wnt inhibition. From the text: The above synthesized compounds were screened using the assay procedure for Wnt activity described below.
Reporter cell lines can be generated by stably transducing cells of cancer cell lines (e.g., colon cancer) with a lentiviral construct that include a wnt-responsive promoter driving expression of the firefly luciferase gene.
Lentiviral constructs can be made in which the SP5 promoter, a promoter having eight TCF/LEF binding sites derived from the SP5 promoter, is linked upstream of the firefly luciferase gene. The lentiviral constructs can also include a hygromycin resistance gene as a selectable marker. The SP5 promoter construct can be used to transduce SW480 cells, a colon cancer cell line having a mutated APC gene that generates a truncated APC protein, leading to de-regulated accumulation of β-catenin.
Cultured SW480 cells bearing a reporter construct can be distributed at approximately 10,000 cells per well into 96 well or 384 well plates. Compounds from a small molecule compound library can then be added to the wells in half-log dilutions using a ten micromolar top concentration. A series of control wells for each cell type receive only buffer and compound solvent. Twenty-four to forty hours after the addition of compound, reporter activity for luciferase can be assayed, for example, by addition of the BrightGlo luminescence reagent (Promega) and the Victor3 plate reader (Perkin Elmer). Readings can be normalized to DMSO only treated cells, and normalized activities can then be used in the IC50 calculations.
`O=C(Nc1cncc(-c2cnc3[nH]nc(-c4nc5c(-c6cccc(F)c6)cncc5[nH]4)c3c2)c1)C(F)(F)F` [Compound 1, 2,2,2-Trifluoro-N-(5-(3-(7-(3-fluorophenyl)-3H-imidazo[4,5-c]pyridin-2-yl)-1H-pyrazolo[3,4-b]pyridin-5-yl)pyridin-3-yl)acetamide]: the IC50 was 6 nM.

Regarding `CN1CCN(c2cncc(-c3cnc4[nH]nc(-c5nc6c(-c7cccc(F)c7)cncc6[nH]5)c4c3)c2)CC1` [Compound 4, 3-(7-(3-Fluorophenyl)-3H-imidazo[4,5-c]pyridin-2-yl)-5-(5-(4-methylpiperazin-1-yl)pyridin-3-yl)-1H-pyrazolo[3,4-b]pyridine], the IC50 worked out at 333 nM.

For the compound `CN(C)CCNc1cncc(-c2cnc3[nH]nc(-c4nc5c(-c6cccc(F)c6)cncc5[nH]4)c3c2)c1` [Compound 6, N1-(5-(3-(7-(3-Fluorophenyl)-3H-imidazo[4,5-c]pyridin-2-yl)-1H-pyrazolo[3,4-b]pyridin-5-yl)pyridin-3-yl)-N2,N2-dimethylethane-1,2-diamine], the IC50 stood at 550 nM.

In the case of `CCNC(=O)c1cncc2[nH]c(-c3n[nH]c4ncc(-c5cccnc5)cc34)nc12` [Compound 8, N-Ethyl-2-(5-(pyridin-3-yl)-1H-pyrazolo[3,4-b]pyridin-3-yl)-3H-imidazo[4,5-c]pyridine-7-carboxamide], the IC50 was 8250 nM.

Regarding `Fc1cc(-c2cncc3[nH]c(-c4n[nH]c5ncc(-c6cccnc6)cc45)nc23)cc(N2CCOCC2)c1` [Compound 13, 4-(3-Fluoro-5-(2-(5-(pyridin-3-yl)-1H-pyrazolo[3,4-b]pyridin-3-yl)-3H-imidazo[4,5-c]pyridin-7-yl)phenyl)morpholine], the IC50 amounted to 172 nM.

For `CC(C)N1CCN(c2cc(F)cc(-c3cncc4[nH]c(-c5n[nH]c6ncc(-c7cccnc7)cc56)nc34)c2)CC1` [Compound 15, 3-(7-(3-Fluoro-5-(4-isopropylpiperazin-1-yl)phenyl)-3H-imidazo[4,5-c]pyridin-2-yl)-5-(pyridin-3-yl)-1H-pyrazolo[3,4-b]pyridine], the IC50 is 326 nM.

On to `Fc1cc(CN2CCCC2)cc(-c2cncc3[nH]c(-c4n[nH]c5ncc(-c6cccnc6)cc45)nc23)c1` [Compound 16, 3-(7-(3-Fluoro-5-(pyrrolidin-1-ylmethyl)phenyl)-3H-imidazo[4,5-c]pyridin-2-yl)-5-(pyridin-3-yl)-1H-pyrazolo[3,4-b]pyridine], for which the IC50 was found to be 384 nM.

Take `CC(C)N(Cc1cc(F)cc(-c2cncc3[nH]c(-c4n[nH]c5ncc(-c6cccnc6)cc45)nc23)c1)C(C)C` [Compound 17, N-(3-Fluoro-5-(2-(5-(pyridin-3-yl)-1H-pyrazolo[3,4-b]pyridin-3-yl)-3H-imidazo[4,5-c]pyridin-7-yl)benzyl)-N-isopropylpropan-2-amine]: the IC50 turned out to be 550 nM.

With `CC1CCN(c2cc(F)cc(-c3cncc4[nH]c(-c5n[nH]c6ncc(-c7cccnc7)cc56)nc34)c2)CC1` [Compound 19, 3-(7-(3-Fluoro-5-(4-methylpiperidin-1-yl)phenyl)-3H-imidazo[4,5-c]pyridin-2-yl)-5-(pyridin-3-yl)-1H-pyrazolo[3,4-b]pyridine], the IC50 was 499 nM.

Turning to `CN(C)Cc1cncc(-c2cnc3[nH]nc(-c4nc5c(-c6cncc(F)c6)cncc5[nH]4)c3c2)c1` [Compound 20, 1-(5-(3-(7-(5-Fluoropyridin-3-yl)-3H-imidazo[4,5-c]pyridin-2-yl)-1H-pyrazolo[3,4-b]pyridin-5-yl)pyridin-3-yl)-N,N-dimethylmethanamine], the IC50 was 10000 nM.

As to `Fc1cc(-c2cncc3[nH]c(-c4n[nH]c5ncc(-c6cccnc6)cc45)nc23)cc(N2CCNCC2)c1` [Compound 21, 3-(7-(3-Fluoro-5-(piperazin-1-yl)phenyl)-3H-imidazo[4,5-c]pyridin-2-yl)-5-(pyridin-3-yl)-1H-pyrazolo[3,4-b]pyridine], the IC50 worked out at 167 nM.

On to `CN(C)Cc1cncc(-c2cnc3[nH]nc(-c4nc5c(-c6cc(F)cc(CNS(C)(=O)=O)c6)cncc5[nH]4)c3c2)c1` [Compound 22, N-(3-(2-(5-(5-((Dimethylamino)methyl)pyridin-3-yl)-1H-pyrazolo[3,4-b]pyridin-3-yl)-3H-imidazo[4,5-c]pyridin-7-yl)-5-fluorobenzyl)methanesulfonamide], for which the IC50 was determined as 32 nM.

For `Fc1cncc(-c2cncc3[nH]c(-c4n[nH]c5ncc(-c6cccnc6)cc45)nc23)c1` [Compound 23, 3-(7-(5-Fluoropyridin-3-yl)-3H-imidazo[4,5-c]pyridin-2-yl)-5-(pyridin-3-yl)-1H-pyrazolo[3,4-b]pyridine], the IC50 was 10000 nM.

In the case of `CN(C)Cc1cncc(-c2cnc3[nH]nc(-c4nc5c(-c6cc(F)cc(N7CCOCC7)c6)cncc5[nH]4)c3c2)c1` [Compound 24, 1-(5-(3-(7-(3-Fluoro-5-morpholinophenyl)-3H-imidazo[4,5-c]pyridin-2-yl)-1H-pyrazolo[3,4-b]pyridin-5-yl)pyridin-3-yl)-N,N-dimethylmethanamine], the IC50 is 21 nM.

In the case of `CN(C)Cc1cncc(-c2cnc3[nH]nc(-c4nc5c(-c6cncc(C(F)(F)F)c6)cncc5[nH]4)c3c2)c1` [Compound 25, N,N-Dimethyl-1-(5-(3-(7-(5-(trifluoromethyl)pyridin-3-yl)-3H-imidazo[4,5-c]pyridin-2-yl)-1H-pyrazolo[3,4-b]pyridin-5-yl)pyridin-3-yl)methanamine], the IC50 was found to be 10000 nM.

Take `Fc1cccc(-c2cncc3[nH]c(-c4n[nH]c5ncc(-c6cncc(CN7CCCC7)c6)cc45)nc23)c1` [Compound 27, 3-(7-(3-Fluorophenyl)-3H-imidazo[4,5-c]pyridin-2-yl)-5-(5-(pyrrolidin-1-ylmethyl)pyridin-3-yl)-1H-pyrazolo[3,4-b]pyridine]: the IC50 came out at 1780 nM.

In the case of `Fc1cccc(-c2cncc3[nH]c(-c4n[nH]c5ncc(-c6cncc(CN7CCCCC7)c6)cc45)nc23)c1` [Compound 28, 3-(7-(3-Fluorophenyl)-3H-imidazo[4,5-c]pyridin-2-yl)-5-(5-(piperidin-1-ylmethyl)pyridin-3-yl)-1H-pyrazolo[3,4-b]pyridine], the IC50 stood at 720 nM.

Regarding `O=C(Nc1cncc(-c2cnc3[nH]nc(-c4nc5c(-c6cccc(F)c6)cncc5[nH]4)c3c2)c1)C1CC1` [Compound 114, N-(5-(3-(7-(3-Fluorophenyl)-3H-imidazo[4,5-c]pyridin-2-yl)-1H-pyrazolo[3,4-b]pyridin-5-yl)pyridin-3-yl)cyclopropanecarboxamide], the IC50 was 11 nM.

Consider `O=C(Cc1ccccc1)Nc1cncc(-c2cnc3[nH]nc(-c4nc5c(-c6ccc(F)cc6)cncc5[nH]4)c3c2)c1` [Compound 128, N-(5-(3-(7-(4-Fluorophenyl)-3H-imidazo[4,5-c]pyridin-2-yl)-1H-pyrazolo[3,4-b]pyridin-5-yl)pyridin-3-yl)-2-phenylacetamide], for which the IC50 was determined as 90 nM.

Turning to `Fc1ccc(-c2cncc3[nH]c(-c4n[nH]c5ncc(-c6cncc(CNCC7CCCC7)c6)cc45)nc23)cc1` [Compound 142, 1-Cyclopentyl-N-((5-(3-(7-(4-fluorophenyl)-3H-imidazo[4,5-c]pyridin-2-yl)-1H-pyrazolo[3,4-b]pyridin-5-yl)pyridin-3-yl)methyl)methanamine], the IC50 was 645 nM.
